Series [1] is described as follows: Dissolution test of tablets in simulated gastric buffer, released SNAC by HPLC. In kind it is physicochemical. The following applies: tablet with 100 mg sodium bicarbonate vs tablet without; simulated gastric buffer pH 2.0, 37° C. Here is the method:
The tablets were in a form of a homogeneous mixture.
Each tablet formulation was subjected to a dissolution test in 100 ml of simulated gastric buffer (without pepsin), pH 2.0, at 37° C., according to USP 23 Apparatus 2 (paddle) with 50 rotations per minute. The amount of released SNAC in each sample was determined chromatographically, using an HPLC apparatus with Cosmosil™ 5 C18-MS-II (4.6 ID×250 mm) column. Mobile phase consisted of 50% acetonitrile and 50% phosphoric acid solution (0.1%). Flow rate was 1 ml/minute and injection volume was 25 μl. Amount of released SNAC was calculated as a percentage of the amount of SNAC in the formulation.

A short description of series [2]: Open label pharmacokinetic study of oral teriparatide tablet, two visits. The following applies: for Tmax: human, plasma, po, 0.75 mg; for Tmax / Cmax after 1st administration / Cmax after 2nd administration: oral tablet 0.75 mg teriparatide with SNAC and SBTI. In kind it is in vivo, human. The method, then: An open label comparative pharmacokinetic study was performed in healthy volunteers over the course of 3 months. Each volunteer received—in each of two visits—the same oral tablet containing 0.75 mg of teriparatide, a recombinant form of parathyroid hormone (1-34).
The formulation was composed of teriparatide (0.75 mg), SNAC (sodium 8-N-(2-hydroxybenzoyl)aminocaprylate), soybean trypsin inhibitor (SBTI) and a small amount of magnesium stearate.
Tablets were administered in the morning after an 8-hour overnight fast and immediately followed by 150 ml of water. At each visit a standard meal was provided 3 hours after drug administration. […] There was a two weeks period between the visits.
(§1) To determine parathyroid hormone(1-34) (PTH(1-34)) concentrations, blood samples (4 ml each) were drawn via an indwelling catheter from the forearm vein at predetermined time points during each visit. The cannula was flushed with 1.5 ml normal saline after each sampling. In addition, to avoid sample dilution, 1 ml of blood was drawn and discarded before the next sample. The blood samples were taken at following times: baseline (predose), 10 minutes, 15 minutes, 20 minutes, 30 minutes, 45 minutes, 60 minutes, 75 minutes, 90 minutes, 105 minutes, 2 hours, 3 hours, 4 hours and 5 hours post-administration. Each blood sample was collected into a single tube containing EDTA (ethylenediaminetetraacetic acid) and placed on ice. Within 15 minutes of blood collection, samples were centrifuged for 10 minutes at 4° C. (2500 rotations per minute) and the plasma was separated and divided into two or three aliquots. Each aliquot was transferred into appropriately labeled polypropylene tubes and stored at approximately −20° C. pending analysis. PTH(1-34) levels were measured using an IDS-iSYS automated assay for the measurement of intact PTH(1-34) in human plasma or serum.

Series [3] can be described thus: Phase I clinical study of oral teriparatide formulations vs subcutaneous injection, plasma PTH(1-34). It counts as in vivo, human. The method, then: A Phase I clinical study of exemplary oral formulations comprising teriparatide (parathyroid hormone (1-34)) was conducted at the Hadassah Clinical Research Center. 42 healthy volunteers were included throughout the study.
The formulation was composed of teriparatide (200, 400, 680, 1400 or 1800 μg), SNAC (sodium 8-N-(2-hydroxybenzoyl) aminocaprylate), soybean trypsin inhibitor and magnesium stearate.
Tablets were administered in the morning after an 8-hour overnight fast and immediately followed by 150 ml of water. At each visit a standard meal was provided 3 hours after drug administration.
as §1, with “hormone” for “hormone(1-34) (PTH(1-34))”, “points.” for “points during each visit.”, “(predose),” for “(predose), 10 minutes,”, “15” for “15 minutes, 20”
Oral administration of teriparatide was performed as described hereinabove at doses of 200, 400, 680, 1400 or 1800 μg. The Cmax of PTH(1-34) for each orally administered dose was compared with the Cmax of PTH(1-34) for subcutaneous injection of 20 μg teriparatide.

In series [4] the test system is cAMP, a known marker of PTH activity. Put plainly: Plasma cAMP levels after oral or subcutaneous teriparatide. In kind it is in vivo, human. Here is the method: In addition, plasma levels of cAMP, a known marker of PTH activity, were determined in order to confirm biological activity of administered PTH. cAMP plasma levels were measured following oral administration of 680 μg teriparatide or subcutaneous injection of 20 μg teriparatide, as described hereinabove.

Series [5] is described as follows: Pharmacokinetic study of oral teriparatide tablet with water or sodium bicarbonate solution. In kind it is in vivo, human. The conditions noted are these: oral tablet 0.75 mg with 150 ml of 3 mg/ml sodium bicarbonate solution. The method, then: An open label comparative pharmacokinetic study was performed on ten healthy volunteers. On different visits, each volunteer received the same oral tablet containing 0.75 mg of teriparatide, a recombinant form of parathyroid hormone (1-34) (PTH(1-34)). In the first visit, the tablet was administered with 150 ml water, whereas in the second visit the tablet was administered with 150 ml of 3 mg/ml sodium bicarbonate aqueous solution.
The formulation was composed of teriparatide (0.75 mg), SNAC (sodium 8-N-(2-hydroxybenzoyl) aminocaprylate), soybean trypsin inhibitor (SBTI) and a small amount of magnesium stearate.
Tablets were administered in the morning after an 8-hour overnight fast. At each visit a standard meal was provided 3 hours after drug administration. […] There was a two week period between the two visits.
To determine PTH(1-34) concentrations, blood samples were drawn and PTH(1-34) levels were measured using an IDS-iSYS automated assay, using procedures described in Example 1 hereinabove. Relative absorption was determined based on the AUC (area under curve) parameter.

Here are results for two molecules from patent US20180028622A1, “TREATMENT OF OSTEOPOROSIS” (Entera Bio Ltd., priority 2015, published 2018).

Like-named read-outs stand apart in the source and are kept apart here.

With `O=C(O)CCCCCCCNC(=O)c1ccccc1O` [SNAC, sodium 8-N-(2-hydroxybenzoyl)aminocaprylate], the “dissolution (release) of SNAC from tablet” value in series [1] was “considerably enhanced the dissolution”.

With `CC[C@H](C)[C@H](NC(=O)[C@H](CCC(=O)O)NC(=O)[C@H](CO)NC(=O)[C@@H](NC(=O)[C@@H](N)CO)C(C)C)C(=O)N[C@@H](CCC(N)=O)C(=O)N[C@@H](CC(C)C)C(=O)N[C@@H](CCSC)C(=O)N[C@@H](Cc1cnc[nH]1)C(=O)N[C@@H](CC(N)=O)C(=O)N[C@@H](CC(C)C)C(=O)NCC(=O)N[C@@H](CCCCN)C(=O)N[C@@H](Cc1cnc[nH]1)C(=O)N[C@@H](CC(C)C)C(=O)N[C@@H](CC(N)=O)C(=O)N[C@@H](CO)C(=O)N[C@@H](CCSC)C(=O)N[C@@H](CCC(=O)O)C(=O)N[C@@H](CCCN=C(N)N)C(=O)N[C@H](C(=O)N[C@@H](CCC(=O)O)C(=O)N[C@@H](Cc1c[nH]c2ccccc12)C(=O)N[C@@H](CC(C)C)C(=O)N[C@@H](CCCN=C(N)N)C(=O)N[C@@H](CCCCN)C(=O)N[C@@H](CCCCN)C(=O)N[C@@H](CC(C)C)C(=O)N[C@@H](CCC(N)=O)C(=O)N[C@@H](CC(=O)O)C(=O)N[C@H](C(=O)N[C@@H](Cc1cnc[nH]1)C(=O)N[C@@H](CC(N)=O)C(=O)N[C@@H](Cc1ccccc1)C(=O)O)C(C)C)C(C)C` [teriparatide], the Tmax in series [2] (subject A, fasted, plasma PTH(1-34), read-out: Tmax after 1st administration (converted)) is 15 min; in series [2] (subject A, two weeks after 1st, read-out: Tmax after 2nd administration (converted)) it was 20 min; in series [2] (subject B, fasted, plasma PTH(1-34), read-out: Tmax after 1st administration (converted)), 10 min; in series [2] (subject B, two weeks after 1st, read-out: Tmax after 2nd administration (converted)), 20 min; in series [2] (subject C, fasted, plasma PTH(1-34), read-out: Tmax after 1st administration (converted)), 10 min; in series [2] (subject C, two weeks after 1st, read-out: Tmax after 2nd administration (converted)) it was 20 min. In series [2] (oral tablet 0.75 mg), the “time for plasma levels to return to baseline levels after tablet administration” value is at most 60 min. Also, the “Cmax between different administrations in a given subject” value in series [2] (oral tablet 0.75 mg, two administrations two weeks apart) was “relatively constant”. For the same molecule, the “Cmax after 1st administration” value was 195 picogram/ml in series [2] (subject A, fasted, plasma PTH(1-34)); 124 picogram/ml in series [2] (subject B, fasted, plasma PTH(1-34)); 35 picogram/ml in series [2] (subject C, fasted, plasma PTH(1-34)). The “Cmax after 2nd administration” value in series [2] (subject A, two weeks after 1st) is reported as 283 picogram/ml; in series [2] (subject B, two weeks after 1st), 116 picogram/ml; in series [2] (subject C, two weeks after 1st), 36 picogram/ml. Also, the “decline of PTH levels following oral administration compared with subcutaneous administration” value in series [3] (oral 1800 μg vs subcutaneous 20 μg) is “declined considerably more rapidly”. For the same molecule, the “Cmax of PTH(1-34) following oral administration, relation to dose” value in series [3] (oral 200, 400, 680, 1400 or 1800 μg) was “proportional to the dose”. Also, the “oral dose providing a Cmax equivalent to subcutaneous administration of 20 μg teriparatide” value in series [3] (oral tablet with SNAC and soybean trypsin inhibitor) is recorded as “roughly 750 μg”. For the same molecule, the “plasma cAMP levels” value in series [4] (oral administration of 680 μg) and in series [4] (subcutaneous administration of 20 μg) was “increased plasma cAMP levels to a similar degree” in each case. In series [5], the “increase of absorption (AUC) in comparison with co-administration with water” value is “about 35%”.
